Results: patent publication US20210301315A1, “METHODS FOR TREATING POLYMICROBIAL INFECTIONS” (priority 2017, published 2021)

Columns and labels:
[1] = system: bacterial organisms present in patient urine sample; test: Antibiotic Resistance (ABR) assay utilizing agar-containing medium; assay type: cell-based; conditions: for overall sensitivity of the bacteria in the sample to the antibiotic (in words): Example 2 sample
Procedure: Urine samples suitable for processing with this assay are collected, transported, and stored using BD Vacutainer (gray top) tubes or other suitable leak-proof sterile container. Urine samples may be held at room temperature for 48 hours before test results are compromised.
Antibiotic stocks are stored at 2-8° C. and protected from direct sunlight. Prepared antibiotic stock solutions were aliquoted into a 96-deep well plate (Thermo Fisher Scientific) to form an Antibiotic Source Plate, as shown in FIG. 11 and identified by antibiotic name and concentration (μg/mL; 10× final concentration). […] One well was designated AB-blend which contained a combination of antibiotics to ensure there was no bacterial growth.
One hundred microliters of Mueller-Hinton agar medium was aliquoted into each appropriate well position of a 96-well microplate (VIS 96/F-PS, Eppendorf). The medium was allowed to solidify at room temperature for at least 10 min.
The antibiotics (10 μL) at various concentrations were then aliquoted into desired wells from the Antibiotic Source Plate. After the antibiotics were introduced to the agar medium, the ABR microplates were allowed to sit for at least 1 hr before use. If long-term storage is required, ABR microplates containing antibiotic-infuse agar are stored at 2-8° C. in the dark.
At the time of testing, urine samples were diluted 1:20 in sterile saline and vortexed. Each patient sample utilized a single ABR microplate. Five microliters of diluted patient sample were added to each well of the room temperature microplate, the plate was sealed and incubated for 16-18 hr at 37° C.
After incubation, the plate was removed from the incubator and carefully uncovered. Two-hundred microliters of deionized water were added to each well to suspend cells present above the agar and the plates incubated at room temperature for 30 min. After 30 min, 100 μl from each well was removed to a new plate and the OD600 was determined in a spectrophotometer. Five separate reads were taken of each plate and a mean OD600 measurement calculated.
Controls include: No-antibiotic control, Negative control plate, and AB-Blend. No antibiotic control: Any well containing medium that is not infused with antibiotics to ensure viability of bacterial cells present in patient urine samples and included in each plate. […] Negative control plate: Microplate containing antibiotic-infused agar medium without addition of patient sample or cultured bacterial organisms to ensure non-contamination of reagents. AB-Blend: One or more wells containing a combination of antibiotics to ensure there is no bacterial growth.
The raw data was then “blanked” using the measurement obtained from the AB-Blend well, as depicted in Table 5.
(§1) To determine whether bacterial organisms present in the patient samples were resistant or sensitive to a particular antibiotic at a certain concentration, blanked OD readings were compared to a threshold OD600 of 0.025 (Table 6). Any OD measurement greater than or equal to this threshold was designated Resistant (R) meaning bacterial organisms present in patient sample were resistant to that particular antibiotic at that certain concentration. Any OD measurement less than this threshold was designated Sensitive (S) meaning bacterial organisms present in patient sample were sensitive to that particular antibiotic at that certain concentration.

[2] = system: bacterial organisms present in patient urine sample; test: Antibiotic Resistance (ABR) assay utilizing liquid growth medium; assay type: cell-based; conditions: liquid medium; for overall sensitivity of the bacteria in the sample to the antibiotic (in words): Example 4 sample
Procedure: Urine samples suitable for processing with this assay are collected, transported, and stored using BD Vacutainer tubes or other suitable leak-proof sterile containers. Urine samples may be held at room temperature for 48 hours before test results are compromised.
Antibiotic stocks are stored at 2-8° C. and protected from direct sunlight. Prepared antibiotic stock solutions were aliquoted into a 96-deep well plate (ThermoFisher Scientific) to form a 50× Antibiotic Source Plate and then diluted 1:5 to form a 10× Antibiotic Source Plate, as shown in FIG. 12 where each well is identified by antibiotic name and concentration (μg/mL; 10× final concentration). […] One well was assigned sodium azide to ensure no bacterial growth would be observed in that well.
Twenty microliters of each antibiotic solution were aliquoted into the pre-determined wells of a 96-well microplate (VIS 96/F-PS, Eppendorf) from the 10× Antibiotic Source Plate to create ABR testing plates for inoculation. These ABR testing plates were allowed to sit for up to 24 hours before use at 2-8° C. in the dark.
At the time of testing, urine samples were centrifuged to concentrate any bacterial cells and then mixed with liquid Mueller-Hinton medium and incubated for 6-16 hours at 37° C. After this initial incubation, the sample is diluted to 0.5-0.6 McF in saline and then 500 μl of that suspension was added to […] of Mueller-Hinton medium. One-hundred and eighty microliters of the diluted sample is then aliquoted to each well of the ABR microplate already containing 10× antibiotic solution, bringing all of the antibiotics to the desired final concentration. The plate is then sealed and incubated for 12-16 hours at 37° C.
After incubation, the plate was removed from the incubator and carefully uncovered and the OD600 was determined for each appropriate well by spectrophotometer. Five separate measurements were taken of each well on a plate and the mean OD600 measurement calculated for each well.
Controls are depicted in Table 10.
The raw data was then “blanked” using the measurement obtained from the Na-Azide well, as depicted in Table 14.
as §1, with “0.065” for “0.025”, “15). An” for “6). Any”

| SMILES | Blanked (OD600 minus AB-Blend well) ([1]; antibiotic 8 μg/mL) | Mean (OD600) ([1]; antibiotic 8 μg/mL) | Blanked (OD600 minus AB-Blend well) ([1]; antibiotic 16 μg/mL) | Mean (OD600) ([1]; antibiotic 16 μg/mL) | Blanked (OD600 minus AB-Blend well) ([1]; antibiotic 32 μg/mL) | Mean (OD600) ([1]; antibiotic 32 μg/mL) | Blanked (OD600 minus Na-Azide well) ([2]; antibiotic 8 μg/mL) | Mean (OD600) ([2]; antibiotic 8 μg/mL) | Blanked (OD600 minus Na-Azide well) ([2]; antibiotic 32 μg/mL) | Mean (OD600) ([2]; antibiotic 32 μg/mL) | overall sensitivity of the bacteria in the sample to the antibiotic (in words) [2] | overall sensitivity of the bacteria in the sample to the antibiotic (in words) [1] | Blanked (OD600 minus AB-Blend well) ([1]; antibiotic 4 μg/mL) | Mean (OD600) ([1]; antibiotic 4 μg/mL) | Blanked (OD600 minus Na-Azide well) ([2]; antibiotic 4 μg/mL) | Mean (OD600) ([2]; antibiotic 4 μg/mL) | Blanked (OD600 minus AB-Blend well) ([1]; antibiotic 1 μg/mL) | Mean (OD600) ([1]; antibiotic 1 μg/mL) | Blanked (OD600 minus Na-Azide well) ([2]; antibiotic 1 μg/mL) | Mean (OD600) ([2]; antibiotic 1 μg/mL) | also measured |
| --- | --- | --- | --- | --- | --- | --- | --- | --- | --- | --- | --- | --- | --- | --- | --- | --- | --- | --- | --- | --- | --- |
| CC1(C)S[C@@H]2[C@H](NC(=O)[C@H](N)c3ccccc3)C(=O)N2[C@H]1C(=O)O [Ampicillin, ampicillin] | 0.4496 | 0.4880 | 0.4838 | 0.5222 | 0.4440 | 0.4824 | −0.0040 | 0.0417 | −0.0039 | 0.0418 | sensitive |  |  |  |  |  |  |  |  |  | Blanked (OD600 minus Na-Azide well) ([2]; antibiotic 16 μg/mL): −0.0038; Mean (OD600) ([2]; antibiotic 16 μg/mL): 0.0419 |
| CO[C@@]1(NC(=O)Cc2cccs2)C(=O)N2C(C(=O)O)=C(COC(N)=O)CS[C@@H]21 [Cefoxitin, cefoxitin] | 0.0008 | 0.0392 | 0.0005 | 0.0389 | 0.0005 | 0.0389 | 0.1831 | 0.2288 | 0.1891 | 0.2348 |  | sensitive | 0.0017 | 0.0401 | 0.1745 | 0.2202 |  |  |  |  |  |
| CO/N=C(\C(=O)N[C@@H]1C(=O)N2C(C(=O)O)=C(CSc3nc(=O)c(=O)[nH]n3C)CS[C@H]12)c1csc(N)n1 [Ceftriaxone, ceftriaxone] | 0.0008 | 0.0392 | 0.0007 |  | 0.0002 | 0.0386 | 0.1992 | 0.2449 |  |  |  | sensitive | 0.0021 | 0.0405 | 0.1900 | 0.2357 | 0.0061 | 0.0445 | 0.2028 | 0.2485 | Blanked (OD600 minus AB-Blend well) ([1]; antibiotic 2 μg/mL): 0.0048; Mean (OD600) ([1]; antibiotic 2 μg/mL): 0.0432; Blanked (OD600 minus AB-Blend well) ([1]; antibiotic 64 μg/mL): 0.0001; Mean (OD600) ([1]; antibiotic 64 μg/mL): 0.0385; Blanked (OD600 minus Na-Azide well) ([2]; antibiotic 64 μg/mL): 0.1899; Mean (OD600) ([2]; antibiotic 64 μg/mL): 0.2356 |
| O=C(O)c1cn(C2CC2)c2cc(N3CCNCC3)c(F)cc2c1=O [Ciprofloxacin, ciprofloxacin] |  |  |  |  |  |  |  |  |  |  | sensitive | sensitive | 0.0003 | 0.0387 | −0.0034 | 0.0423 | 0.0024 | 0.0408 | −0.0016 | 0.0441 | Blanked (OD600 minus AB-Blend well) ([1]; antibiotic 2 μg/mL): 0.0030; Mean (OD600) ([1]; antibiotic 2 μg/mL): 0.0414 |
| C[C@@H](O)[C@H]1C(=O)N2C(C(=O)O)=C(S[C@@H]3CN[C@H](C(=O)N(C)C)C3)[C@H](C)[C@H]12 [Meropenem, meropenem] | 0.0001 | 0.0385 |  |  |  |  | 0.0039 | 0.0496 |  |  |  | sensitive | 0.0006 | 0.0390 | 0.1099 | 0.1556 | 0.0008 | 0.0392 | 0.1741 | 0.2198 | Blanked (OD600 minus AB-Blend well) ([1]; antibiotic 2 μg/mL): 0.0004; Mean (OD600) ([1]; antibiotic 2 μg/mL): 0.0388; Blanked (OD600 minus Na-Azide well) ([2]; antibiotic 2 μg/mL): 0.1471; Mean (OD600) ([2]; antibiotic 2 μg/mL): 0.1928 |
| CN[C@H](CC(C)C)C(=O)N[C@H]1C(=O)N[C@@H](CC(N)=O)C(=O)N[C@H]2C(=O)N[C@H]3C(=O)N[C@H](C(=O)N[C@H](C(=O)O)c4cc(O)cc(O)c4-c4cc3ccc4O)[C@H](O)c3ccc(c(Cl)c3)Oc3cc2cc(c3O[C@@H]2O[C@H](CO)[C@@H](O)[C@H](O)[C@H]2O[C@H]2C[C@](C)(N)[C@H](O)[C@H](C)O2)Oc2ccc(cc2Cl)[C@H]1O [Vancomycin, vancomycin] |  |  |  | 0.4918 |  |  |  |  | −0.0031 | 0.0426 | sensitive |  |  |  | −0.0032 | 0.0425 |  |  | 0.0047 | 0.0504 | Blanked (OD600 minus Na-Azide well) ([2]; antibiotic 2 μg/mL): −0.0022; Mean (OD600) ([2]; antibiotic 2 μg/mL): 0.0435; Blanked (OD600 minus Na-Azide well) ([2]; antibiotic 16 μg/mL): −0.0026; Mean (OD600) ([2]; antibiotic 16 μg/mL): 0.0431 |
